From US9464097B2, “Gold complexes” (UNIVERSITY COURT OF THE UNIVERSITY OF ST. ANDREWS, priority 2010, dated 2016)

Columns and labels:
[1] = tested on: human urothelial cell line (SV-HUC-1); experiment: Cytotoxicity assay (CCK-8 viability), SV-HUC-1; assay type: cell-based; details: SV-HUC-1, 3 days incubation
Procedure: (§1) Cytotoxicity assay: The compound/complex was dissolved in DMSO and diluted in DMSO. The final dilution was in the respective culture medium and the final concentration of DMSO was always below 0.01%. Cells were pipetted into microtitre plates (NUNC) at 4000 cells/well and incubated at 37° C. in 5% CO2 in air for 24 hr. Varying concentrations of the compounds/complexes were applied to the cells in 10 μl volumes. The plates were incubated for 3 days at 37° C. 5% CO2 in air. The viability of the cells was measured using the Dojindo kit CCK-8 (Cell counting Kit—8, Dojindo technologies USA, CK04-11) method after incubation for 3 hr in the absence of light. The plates were read on an ELISA plate reader at a wavelength of 450 nm.

[2] = tested on: LNCaP (prostate carcinoma) cell line; experiment: Cytotoxicity assay (CCK-8 viability), LNCaP; assay type: cell-based, human; details: 3 days incubation
Procedure: as §1

human cancer cell lines = experiment: Cytotoxicity towards human cancer cell lines, overall comparison with cisplatin; assay type: cell-based; details: cytotoxicity across the tested cell lines
Procedure: as §1

[3] = proton borne by the heteroatom, literature value; cited from earlier work

N.N.[Cl][Pt][Cl] [cisplatin]
IC50 [1]: 25 µM | IC50 [2]: 18 µM

CC(C)c1cccc(C(C)C)c1N1C=CN(c2c(C(C)C)cccc2C(C)C)[CH]1[Au][OH] [complex 2, [Au(OH)(IPr)]]
Overall activity compared with cisplatin (human cancer cell lines): superior to that displayed by cisplatin

Cc1ccc(O)cc1 [p-cresol (14b), p-cresol]
pKa [3]: 18.9

Cc1ccc(S)cc1 [p-thiocresol (14a), p-thiocresol]
pKa [3]: 10.3
